From PubChem BioAssay AID1963847 (Molecular Pharmacology Branch, DTP, NCI, 2024)

Test system: 415267-285-R-J2-PDC complex spheroid viability
Experiment: Anticancer human tumor 415267-285-R-J2-PDC patient-derived breast carcinoma cell line growth inhibition [POLQ]
Settings: for IC50: curve of first compound; for viability, T/C: stronger effect = lower value
How it was run: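 Patient-derived tumour cells were co-cultured with HUVEC and mesenchymal stem cells as multicellular spheroids at 37 °C. They were treated with POLQ inhibitors (novobiocin, ART-558, RP6685) alone or combined with other agents. Top concentrations were at or near clinical Cmax (otherwise 10 microM; SN-38 at 1 microM), decreasing in half-log steps.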

[1] = second compound 0.0316 µM, first compound 0.00316 µM
[2] = second compound 0.0316 µM, first compound 0.01 µM
[3] = second compound 0.0316 µM, first compound 0.0316 µM
[4] = second compound 0.0316 µM, first compound 0.1 µM
[5] = second compound 0.1 µM, first compound 0.00316 µM
[6] = second compound 0.1 µM, first compound 0.01 µM
[7] = second compound 0.1 µM, first compound 0.0316 µM
[8] = second compound 0.1 µM, first compound 0.1 µM
[9] = second compound 0.316 µM, first compound 0.00316 µM
[10] = second compound 0.316 µM, first compound 0.01 µM
[11] = second compound 0.316 µM, first compound 0.0316 µM
[12] = second compound 0.316 µM, first compound 0.1 µM
[13] = second compound 1 µM, first compound 0.00316 µM
[14] = second compound 1 µM, first compound 0.01 µM
[15] = second compound 1 µM, first compound 0.0316 µM
[16] = second compound 1 µM, first compound 0.1 µM
[17] = second compound 3.16 µM, first compound 0.00316 µM
[18] = second compound 3.16 µM, first compound 0.01 µM
[19] = second compound 3.16 µM, first compound 0.0316 µM
[20] = second compound 3.16 µM, first compound 0.1 µM
[21] = second compound 10 µM, first compound 0.00316 µM
[22] = second compound 10 µM, first compound 0.01 µM
[23] = second compound 10 µM, first compound 0.0316 µM
[24] = second compound 10 µM, first compound 0.1 µM
[25] = second compound 0.0316 µM, first compound 0.316 µM
[26] = second compound 0.0316 µM, first compound 1 µM
[27] = second compound 0.1 µM, first compound 0.316 µM
[28] = second compound 0.1 µM, first compound 1 µM
[29] = second compound 0.316 µM, first compound 0.316 µM
[30] = second compound 0.316 µM, first compound 1 µM
[31] = second compound 1 µM, first compound 0.316 µM
[32] = second compound 1 µM, first compound 1 µM
[33] = second compound 3.16 µM, first compound 0.316 µM
[34] = second compound 3.16 µM, first compound 1 µM
[35] = second compound 10 µM, first compound 0.316 µM
[36] = second compound 10 µM, first compound 1 µM
[37] = second compound 0.0316 µM, first compound 3.16 µM
[38] = second compound 0.0316 µM, first compound 10 µM
[39] = second compound 0.1 µM, first compound 3.16 µM
[40] = second compound 0.1 µM, first compound 10 µM
[41] = second compound 0.316 µM, first compound 3.16 µM
[42] = second compound 0.316 µM, first compound 10 µM
[43] = second compound 1 µM, first compound 3.16 µM
[44] = second compound 1 µM, first compound 10 µM
[45] = second compound 3.16 µM, first compound 3.16 µM
[46] = second compound 3.16 µM, first compound 10 µM
[47] = second compound 10 µM, first compound 3.16 µM
[48] = second compound 10 µM, first compound 10 µM
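Further: spheroids exposed to compounds for one week before readout.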
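Wherever viability, T/C is given: luminescence used as stand-in measure of viable cells; 100% = DMSO vehicle control viability.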

Structure (SMILES): Cn1ncnc1[C@H]1c2n[nH]c(=O)c3cc(F)cc(c23)N[C@@H]1c1ccc(F)cc1 + Nc1ccc(C#CCN(C(=O)Cc2ncc(C(F)(F)F)cc2C(F)(F)F)c2ccc(F)cc2)nn1
- IC50 (second compound 0.0316 µM): > 100 nM
- IC50 (second compound 0.1 µM): > 100 nM
- IC50 (second compound 0.316 µM): > 100 nM
- IC50 (second compound 1 µM): > 100 nM
- IC50 (second compound 3.16 µM): > 100 nM
- IC50 (second compound 10 µM): > 100 nM
- viability, T/C (second compound 0.0316 µM, first compound 0.000316 µM): 101%
- viability, T/C (second compound 0.0316 µM, first compound 0.001 µM): 97.2%
- viability, T/C [1]: 101%
- viability, T/C [2]: 93.7%
- viability, T/C [3]: 95.8%
- viability, T/C [4]: 97.8%
- viability, T/C (second compound 0.1 µM, first compound 0.000316 µM): 96.7%
- viability, T/C (second compound 0.1 µM, first compound 0.001 µM): 109%
- viability, T/C [5]: 86.9%
- viability, T/C [6]: 92.6%
- viability, T/C [7]: 99.8%
- viability, T/C [8]: 94.8%
- viability, T/C (second compound 0.316 µM, first compound 0.000316 µM): 88.7%
- viability, T/C (second compound 0.316 µM, first compound 0.001 µM): 102%
- viability, T/C [9]: 88.2%
- viability, T/C [10]: 99.6%
- viability, T/C [11]: 95.5%
- viability, T/C [12]: 110%
- viability, T/C (second compound 1 µM, first compound 0.000316 µM): 98.9%
- viability, T/C (second compound 1 µM, first compound 0.001 µM): 101%
- viability, T/C [13]: 109%
- viability, T/C [14]: 99.5%
- viability, T/C [15]: 105%
- viability, T/C [16]: 120%
- viability, T/C (second compound 3.16 µM, first compound 0.000316 µM): 97.8%
- viability, T/C (second compound 3.16 µM, first compound 0.001 µM): 113%
- viability, T/C [17]: 114%
- viability, T/C [18]: 91.6%
- viability, T/C [19]: 101%
- viability, T/C [20]: 108%
- viability, T/C (second compound 10 µM, first compound 0.000316 µM): 89.8%
- viability, T/C (second compound 10 µM, first compound 0.001 µM): 105%
- viability, T/C [21]: 108%
- viability, T/C [22]: 94.2%
- viability, T/C [23]: 101%
- viability, T/C [24]: 105%

Structure (SMILES): COc1cccc(OCCCN)c1-c1cc(Nc2cnc(C#N)cn2)n[nH]1 + COC1C(OC(N)=O)C(O)C(Oc2ccc3c(O)c(NC(=O)c4ccc(O)c(CC=C(C)C)c4)c(=O)oc3c2C)OC1(C)C
- IC50 (second compound 0.0316 µM): < 3.16 nM
- IC50 (second compound 0.1 µM): < 3.16 nM
- IC50 (second compound 0.316 µM): < 3.16 nM
- IC50 (second compound 1 µM): 3.68 nM
- IC50 (second compound 3.16 µM): 3.6 nM
- IC50 (second compound 10 µM): 3.84 nM
- viability, T/C [1]: 41.4%
- viability, T/C [2]: 14.1%
- viability, T/C [3]: 7.52%
- viability, T/C [4]: 8.68%
- viability, T/C [25]: 6.7%
- viability, T/C [26]: 4.81%
- viability, T/C [5]: 40.2%
- viability, T/C [6]: 10.2%
- viability, T/C [7]: 7.65%
- viability, T/C [8]: 6.8%
- viability, T/C [27]: 6.5%
- viability, T/C [28]: 5.69%
- viability, T/C [9]: 46.9%
- viability, T/C [10]: 8.13%
- viability, T/C [11]: 8.41%
- viability, T/C [12]: 6.89%
- viability, T/C [29]: 7.31%
- viability, T/C [30]: 4.55%
- viability, T/C [13]: 56.2%
- viability, T/C [14]: 9.03%
- viability, T/C [15]: 7.11%
- viability, T/C [16]: 7.02%
- viability, T/C [31]: 5.8%
- viability, T/C [32]: 4.41%
- viability, T/C [17]: 55.3%
- viability, T/C [18]: 8.65%
- viability, T/C [19]: 7.11%
- viability, T/C [20]: 7.79%
- viability, T/C [33]: 5.22%
- viability, T/C [34]: 5.51%
- viability, T/C [21]: 58.6%
- viability, T/C [22]: 7.45%
- viability, T/C [23]: 7.04%
- viability, T/C [24]: 6.59%
- viability, T/C [35]: 6.37%
- viability, T/C [36]: 5.49%

Structure (SMILES): Nc1ccn(C2OC(CO)C(O)C2(F)F)c(=O)n1 (stereo not drawn) + Cc1cccc(N(C)C(=O)C2C(O)CCN2c2nc(C)cc(C(F)(F)F)c2C#N)c1
- IC50 (second compound 0.0316 µM): < 31.6 nM
- IC50 (second compound 0.1 µM): < 31.6 nM
- IC50 (second compound 0.316 µM): < 31.6 nM
- IC50 (second compound 1 µM): < 31.6 nM
- IC50 (second compound 3.16 µM): < 31.6 nM
- IC50 (second compound 10 µM): < 31.6 nM
- viability, T/C [3]: 8.22%
- viability, T/C [4]: 6.11%
- viability, T/C [25]: 5.62%
- viability, T/C [26]: 4.61%
- viability, T/C [37]: 5.96%
- viability, T/C [38]: 5.35%
- viability, T/C [7]: 8.77%
- viability, T/C [8]: 5.43%
- viability, T/C [27]: 6.85%
- viability, T/C [28]: 5.22%
- viability, T/C [39]: 6.13%
- viability, T/C [40]: 4.79%
- viability, T/C [11]: 8.5%
- viability, T/C [12]: 6.58%
- viability, T/C [29]: 5.69%
- viability, T/C [30]: 5.62%
- viability, T/C [41]: 6.58%
- viability, T/C [42]: 6.07%
- viability, T/C [15]: 12.5%
- viability, T/C [16]: 6.12%
- viability, T/C [31]: 5.2%
- viability, T/C [32]: 5.51%
- viability, T/C [43]: 5.07%
- viability, T/C [44]: 5.32%
- viability, T/C [19]: 7.95%
- viability, T/C [20]: 5.96%
- viability, T/C [33]: 5.8%
- viability, T/C [34]: 4.93%
- viability, T/C [45]: 5.53%
- viability, T/C [46]: 5.95%
- viability, T/C [23]: 9.14%
- viability, T/C [24]: 6.37%
- viability, T/C [35]: 6.58%
- viability, T/C [36]: 5.23%
- viability, T/C [47]: 6.03%
- viability, T/C [48]: 5.65%

Structure (SMILES): CC1COCCN1c1cc(C2(O)CC3CCC(C2)O3)c2cnn(-c3ccn[nH]3)c2n1 (stereo not drawn) + Nc1ccc(C#CCN(C(=O)Cc2ncc(C(F)(F)F)cc2C(F)(F)F)c2ccc(F)cc2)nn1
- IC50 (second compound 0.0316 µM): < 31.6 nM
- IC50 (second compound 0.1 µM): < 31.6 nM
- IC50 (second compound 0.316 µM): < 31.6 nM
- IC50 (second compound 1 µM): < 31.6 nM
- IC50 (second compound 3.16 µM): < 31.6 nM
- IC50 (second compound 10 µM): < 31.6 nM
- viability, T/C [3]: 19.2%
- viability, T/C [4]: 6.63%
- viability, T/C [25]: 4.19%
- viability, T/C [26]: 3.59%
- viability, T/C [37]: 4.18%
- viability, T/C [38]: 5.72%
- viability, T/C [7]: 22%
- viability, T/C [8]: 6.34%
- viability, T/C [27]: 5.38%
- viability, T/C [28]: 4.69%
- viability, T/C [39]: 3.81%
- viability, T/C [40]: 2.94%
- viability, T/C [11]: 22.7%
- viability, T/C [12]: 6.83%
- viability, T/C [29]: 4.18%
- viability, T/C [30]: 3.94%
- viability, T/C [41]: 3.9%
- viability, T/C [42]: 2.58%
- viability, T/C [15]: 18.7%
- viability, T/C [16]: 5.19%
- viability, T/C [31]: 4.87%
- viability, T/C [32]: 3.6%
- viability, T/C [43]: 3.79%
- viability, T/C [44]: 2.6%
- viability, T/C [19]: 16.6%
- viability, T/C [20]: 5.61%
- viability, T/C [33]: 4.81%
- viability, T/C [34]: 3.47%
- viability, T/C [45]: 3.8%
- viability, T/C [46]: 3.42%
- viability, T/C [23]: 16.1%
- viability, T/C [24]: 6.98%
- viability, T/C [35]: 5.96%
- viability, T/C [36]: 4.12%
- viability, T/C [47]: 3.92%
- viability, T/C [48]: 3.05%
